# Tested on: PC-3 prostate cancer cells
# Assay: MTT assay of PC-3 prostate cancer cell growth (proliferation) inhibition
# Type: cell-based, human
# Details: Homo sapiens, 144 h, PC-3 cells, 6 days of treatment, read-out: GI50 Values (concentrations that cause 50% growth inhibition)
# Procedure: Data are means (SEM<±5%) of at least three independent experiments.
# Compounds VNLG/145, VNLG/146, VNLG/147, VNLG/148, VNLG/152 and VNLG/153 were tested and evaluated for their ability to inhibit the growth (proliferation) of PC-3 prostate cancer cells using the MTT [3-(4,5-dimethylthiazol-2-yl)-2,5-diphenyltetrazolium bromide] assay (Gediyal et al. 2005). VN/66-1 of U.S. Pat. No. 7,265,143 was tested side by side for comparison. The GI50 values (concentrations that cause 50% growth inhibition) were determined from dose-response curves. See in FIG. 1 for VNLG/145.
# The growth inhibitory experiments with the other compounds gave plots that were similar to FIG. 1.
row,Structure (SMILES),GI50
1,CC1=C(/C=C/C(C)=C/C=C/C(C)=C/C(=O)Nc2ccccc2)C(C)(C)CCC1n1ccnc1 (stereo not drawn) [drawing 40],1170 ± 50 nM
2,CC1=C(/C=C/C(C)=C/C=C/C(C)=C/C(=O)Nc2ccc(F)cc2)C(C)(C)CCC1n1ccnc1 (stereo not drawn) [drawing 39],610 ± 110 nM
3,CC1=C(/C=C/C(C)=C/C=C/C(C)=C/C(=O)Nc2cc(C(F)(F)F)ccc2C(F)(F)F)C(C)(C)CCC1n1ccnc1 (stereo not drawn),14100 ± 7120 nM
4,CC1=C(/C=C/C(C)=C/C=C/C(C)=C/C(=O)Nc2ccccc2O)C(C)(C)CCC1n1ccnc1 (stereo not drawn) [drawing 37],1700 ± 70 nM
5,CC1=C(/C=C/C(C)=C/C=C/C(C)=C/C(=O)NC(C)(C)C)C(C)(C)CCC1n1ccnc1 (stereo not drawn) [drawing 35],1860 ± 50 nM
6,CC1=C(/C=C/C(C)=C/C=C/C(C)=C/C(=O)Nc2ncnc3[nH]cnc23)C(C)(C)CCC1n1ccnc1 (stereo not drawn),5620 ± 370 nM
7,CC1=C(/C=C/C(C)=C/C=C/C(C)=C/C(=O)Nc2ccc(O)cc2)C(C)(C)CCC1n1ccnc1 (stereo not drawn),1700 ± 50 nM

# Same assay, conditions: PC-3 cells, side by side with VN/66-1
row,Structure (SMILES),potency (growth inhibition) compared with VN/66-1
1,CC1=C(/C=C/C(C)=C/C=C/C(C)=C/C(=O)Nc2ccccc2O)C(C)(C)CCC1n1ccnc1 (stereo not drawn) [VNLG/147],potencies similar to VN/66-1
2,CC1=C(/C=C/C(C)=C/C=C/C(C)=C/C(=O)NC(C)(C)C)C(C)(C)CCC1n1ccnc1 (stereo not drawn) [VNLG/145],potencies similar to VN/66-1
3,CC1=C(/C=C/C(C)=C/C=C/C(C)=C/C(=O)Nc2ccc(F)cc2)C(C)(C)CCC1n1ccnc1 (stereo not drawn) [VNLG/152],potencies better than VN/66-1
4,CC1=C(/C=C/C(C)=C/C=C/C(C)=C/C(=O)Nc2ccccc2)C(C)(C)CCC1n1ccnc1 (stereo not drawn) [VNLG/153],potencies better than VN/66-1

# Tested on: RARα,β,γ receptors
# Assay: not given
# Details: compared with ATRA; cited from earlier work
row,Structure (SMILES),"binding and activation of RARα,β,γ receptors"
1,CC1=C(/C=C/C(C)=C/C=C/C(C)=C/C(=O)O)C(C)(C)CCC1n1ccnc1 (stereo not drawn) [VN/14-1],"binds and activates the RARα,β,γ receptors, albeit it is significantly less potent than ATRA"
